“And” between values parts separate entries of the source, which are not always exact repeats. Identical values can stand only once.
Tests used:
[1] = system: Chi18 mRNA construct; assay: Size Exclusion Base Hydrolysis Degradation Assay, Chi18; assay type: biochemical, Trichoderma atroviride; conditions: for T0 R1 peak area at 250 nm: Chi18 0.1 mg/mL, 25 mM amino acid, 50 mM CAPS, T=0, replicate 1; for T2 Avg, peak area as percentage of T=0 / T2 R1 peak area at 250 nm / T10 Avg, peak area as percentage of T=0 / T10 R1 peak area at 250 nm / T24 Avg, peak area as percentage of T=0 / T24 R1 peak area at 250 nm / T0 Avg, peak area as percentage of T=0: Chi18, 25 mM amino acid; for T2 Avg, peak area as percentage of T=0 / T2 R1 peak area at 250 nm / T10 Avg, peak area as percentage of T=0 / T10 R1 peak area at 250 nm / T24 Avg, peak area as percentage of T=0 / T24 R1 peak area at 250 nm: 50 mM CAPS pH 11, room temperature; for T2 Avg, peak area as percentage of T=0 / T2 R1 peak area at 250 nm: 2 hrs; for T2 R1 peak area at 250 nm / T10 R1 peak area at 250 nm / T24 R1 peak area at 250 nm: replicate 1; for T10 Avg, peak area as percentage of T=0 / T10 R1 peak area at 250 nm: 10 hrs; for T24 Avg, peak area as percentage of T=0 / T24 R1 peak area at 250 nm: 24 hrs; for T0 Avg, peak area as percentage of T=0: T=0 (reference)
Description: Basic assay procedure: RNA samples were diluted to 1.0 mg/mL in DNAase/RNAase free water. Amino acids were dissolved in water to a stock solution of 100 mM and a solution of 500 mM CAPS pH 11 was used. The two mRNA constructs tested were FgenL and Chi18. Each individual sample volume was 50 μL. To determine the amount of 1 M NaOH needed to adjust the final pH to 11.0 after the addition of all sample components, the sample volume was increased 100 fold (5 mL), the volume of 1 M NaOH recorded and this value was translated back down to the 50 μL sample volume.
The mRNA and amino acid were allowed to incubate for one hour prior to the addition of CAPS pH 11. All steps of the assay were conducted at room temperature.
Degradation reaction: After the CAPS addition, the samples were injected onto the Waters H-Class UPLC system to record the first timepoint, T=O. This resulting chromatogram was processed by integrating the area of absorbance at 250 nm for the mRNA construct. Immediately following this timepoint, the pH was adjusted to 11. Subsequent time points (2 hrs, 10 hrs, and 24 hrs) recorded the Absorbance Units (peak area) at 250 nm as a percentage of the peak area determined at T=O. Integration of the chromatogram for subsequent timepoints was conducted by analyzing the area of absorbance at 250 nm contained within the same time window in which the peak eluted in T=0 for the 100% intact mRNA.

[2] = system: FgenL model RNA; assay type: biochemical, Trichoderma atroviride; conditions: percent protection, pH 11.0, 44° C., 16 hours, n = 2
Description: The ddPCR assays measure RNA integrity by converting intact RNA to cDNA by reverse transcription, then performing digital PCR in thousands of nanoliter-sized droplets for each sample. PCR is performed within each droplet, which allows for more sensitive detection of subtle changes in RNA concentration compared to traditional PCR or qPCR. Additionally, primers/probes specific to the 5′ end of the RNA/cDNA transcript(s) are used to assess fragment integrity—e.g. degraded RNA will have fewer 5′ positive droplets. The BioRad QX200 Droplet Digital PCR System was used for the ddPCR workflow.
Basic assay procedure: RNA samples (Chi18 or FgenL fragments) were diluted to 25 fg/μL or 10 fg/μL, respectively, in 50 mM […] buffer pH 11.0. Amino acid stocks were made up in 50 mM CAPS buffer, pH 11.0 and subsequently re-adjusted to pH 11.0, post solubilization. Amino acid stocks were tested in a dose-response format to determine EC50. An amino acid dilution plate containing a ˜300 mM (or appropriate) top-concentration of amino acid in 50 mM CAPS buffer was serially (half-log) diluted for 10 times. 0.6 μL of this compound dilution plate was spotted into a 96-well PCR plate (Thermo). Sample RNAs were added (6 μL) and incubated with test amino acid as described below.
Degradation reaction: Treated RNAs were incubated for 16 hours at 30° C. for Chi18 samples or 44° C. for FgenL samples. Upon completion of the degradation reaction, cDNA was made from the intact RNA by Reverse Transcription and ddPCR run for each sample (96 well plates). Positive 5′ droplet values were divided by the total accepted droplet values for each sample and a ratio value generated for each sample.
EC50 was determined by using a four parameter logistic equation: Y=A+((B−A)/(1+(C/X)D)); where Y is percent protection, X is compound concentration, A and B are minimum and maximum asymptotes, respectively, C is EC50, and D is Hill slope.

| Compound | T0 R1 peak area at 250 nm [1] | T2 Avg, peak area as percentage of T=0 [1] [%] | T2 R1 peak area at 250 nm [1] | T10 Avg, peak area as percentage of T=0 [1] [%] | T10 R1 peak area at 250 nm [1] | T24 Avg, peak area as percentage of T=0 [1] [%] | T24 R1 peak area at 250 nm [1] | T0 Avg, peak area as percentage of T=0 [1] [%] | EC50 [2] [mM] | T0 R1 peak area at 250 nm ([1]; listed as Cys) | T2 R1 peak area at 250 nm ([1]; listed as Cys) | T2 Avg, peak area as percentage of T=0 ([1]; listed as Cys) |
| --- | --- | --- | --- | --- | --- | --- | --- | --- | --- | --- | --- | --- |
| C[C@H](N)C(=O)O [Alanine] | 19606 | 71.6 | 13211 | 18.1 | 2730 | 0.0 | 0 | 100.0 | > 30 |  |  |  |
| N=C(N)NCCC[C@H](N)C(=O)O [Arginine] | 20698 | 76.7 | 15655 | 0.0 | 0 | 0.0 | 0 | 100.0 | > 30 |  |  |  |
| NC(=O)C[C@H](N)C(=O)O [Asparagine] | 25494 | 62.7 | 12115 | 0.0 | 0 | 0.0 | 0 | 100.0 |  |  |  |  |
| N[C@@H](CC(=O)O)C(=O)O [Aspartic acid] | 11079 | 69.4 | 7643 | 0.0 | 0 | 0.0 | 0 | 100.0 |  |  |  |  |
| N[C@@H](CS)C(=O)O [Cysteine] |  |  |  | 0.0 | 0 | 0.0 | 0 | 100.0 | > 30 | 39458 and 20358 | 25387 and 14715 | 60.4% and 61.4% |
| NC(=O)CC[C@H](N)C(=O)O [Glutamine] | 25301 | 51.1 | 10030 | 0.0 | 0 | 0.0 | 0 | 100.0 | > 30 |  |  |  |
| N[C@@H](CCC(=O)N[C@@H](CS)C(=O)NCC(=O)O)C(=O)O [Glutathione] | 13157 | 48.7 | 7747 | 0.0 | 0 | 0.0 | 0 | 100.0 | > 30 |  |  |  |
| NCC(=O)O [Glycine] | 32571 | 69.6 | 21950 | 0.0 | 0 | 0.0 | 0 | 100.0 | > 30 |  |  |  |
| N[C@@H](Cc1c[nH]cn1)C(=O)O [Histidine] | 27170 | 152.8 | 14612 | 2.8 | 1391 | 0.0 | 0 | 100.0 | > 30 |  |  |  |
| O=C(O)[C@@H]1C[C@@H](O)CN1 [Hydroxyproline] | 13659 | 76.2 | 8540 | 34.2 | 3280 | 0.0 | 0 | 100.0 | > 30 |  |  |  |
| CC[C@H](C)[C@H](N)C(=O)O [Isoleucine] | 15361 | 63.2 | 7533 | 33.8 | 4699 | 0.0 | 0 | 100.0 | > 30 |  |  |  |
| CC(C)C[C@H](N)C(=O)O [Leucine] | 43979 | 60.6 | 23370 | 26.2 | 10474 | 0.0 | 0 | 100.0 | > 30 |  |  |  |
| NCCCC[C@H](N)C(=O)O [Lysine] | 24122 | 0.0 | 0 | 0.0 | 0 | 0.0 | 0 | 100.0 | > 30 |  |  |  |
| CSCC[C@H](N)C(=O)O [Methionine] | 17259 | 63.5 | 8392 | 40.1 | 6837 | 0.0 | 0 | 100.0 | > 30 |  |  |  |
| N[C@@H](Cc1ccccc1)C(=O)O [Phenylalanine] | 30537 | 72.1 | 22175 | 16.3 | 3615 | 0.0 | 0 | 100.0 | > 30 |  |  |  |
| O=C(O)[C@@H]1CCCN1 [Proline] | 12033 | 72.0 | 7330 | 28.5 | 2712 | 0.0 | 0 | 100.0 | > 30 |  |  |  |
| N[C@@H](CO)C(=O)O [Serine] | 31778 | 150.4 | 19639 | 0.0 | 0 | 0.0 | 0 | 100.0 | > 30 |  |  |  |
| C[C@@H](O)[C@H](N)C(=O)O [Threonine] | 39202 | 74.6 | 28759 | 26.0 | 10963 | 0.0 | 0 | 100.0 | > 30 |  |  |  |

Reference: patent US20240122865A1, “Methods of Protecting RNA” (Pfizer Inc., priority 2021, published 2024)
